Source: US20240252677A1, “ONE-COMPONENT DELIVERY SYSTEM FOR NUCLEIC ACIDS” (The Trustees of the University of Pennsylvania, priority 2021, published 2024)

What was measured:
[1] = DLS size of dendrimersomes assembled from glycerol-JDs in water at different concentrations; type: physicochemical; conditions: for Dh (nm): size distribution by intensity
Description: Assembly of all eight glycerol-JDs was performed by injection of their ethanol solution (50 μL) into 1 mL of Milli-Q water. The size distribution and structure of resulting DSs were analyzed by DLS (FIG. 84) and cryo-TEM. […] In a certain concentration range the size of DSs increased with the concentration of JDs injected in water or buffer. […] The dimensions of the assemblies were identical when the concentrations of the JDs in water were identical. Sizes of assemblies from mixtures of 1R and 1S in different ratios (1:3, 1:1 and 3:1), were also identical (FIG. 84). […] With the exception of the rotation of polarized light, the physical properties of enantiomers and their racemic mixtures must be identical.
Dynamic light scattering (DLS). Hydrodynamic diameters (Dh) of the self-assemblies of dendrimer molecules and their size distributions were measured on a Malvern Instruments particle sizer (Zetasizer® Nano S, Malvern Instruments, UK) equipped with 4 mW He—Ne laser (633 nm) and avalanche photodiode positioned at […] to the beam and temperature controlled cuvette holder. Experiments were performed at 25° C. in triplicate. The distribution of radius was intensity.

[2] = Cryo-TEM of dendrimersomes from glycerol-JDs, number of vesicle layers; type: physicochemical; conditions: for Number of vesicle layers: 1 (count of vesicles): vesicles with 1 layer; for Number of vesicle layers: 2 (count of vesicles): vesicles with 2 layers; for Number of vesicle layers: 3 (count of vesicles): vesicles with 3 layers; for Number of vesicle layers: 4 (count of vesicles): vesicles with 4 layers; for Number of vesicle layers: 5 (count of vesicles): vesicles with 5 layers; for Number of vesicle layers: 6 (count of vesicles): vesicles with 6 layers; for lamellarity of DSs (in words) / calculated percentages of unilamellar DSs in the selected images: cryo-TEM; for calculated percentages of unilamellar DSs in the selected images: JD 1 mg mL-1 in water; for Number of vesicle layers: 7 (count of vesicles): vesicles with 7 layers; for Number of vesicle layers: 8 (count of vesicles): vesicles with 8 layers; for Number of vesicle layers: 9 (count of vesicles): vesicles with 9 layers; for Number of vesicle layers: 10 (count of vesicles): vesicles with 10 layers; for Number of vesicle layers: 11 (count of vesicles): vesicles with 11 layers; for Number of vesicle layers: 12 (count of vesicles): vesicles with 12 layers
Description: The red numbers in FIG. 85 stand for the unilamellar while yellow numbers for multilamellar DSs. The calculated percentages of unilamellar DSs in the selected images for 2R, 2S and 2rac are 91%, 70% and 13%, respectively. Same trend was found for cryo-TEM of 1R, 1S and 1rac (FIG. 86 through FIG. 88). […] Achiral DSs are all unilamellar.
Cryogenic Transmission Electron Microscopy (Cryo-TEM). Morphologies of the Janus Dendrimer assemblies were characterized by cryo-TEM. Images were acquired on a Carl Zeiss Libra 120 microscope. Samples were prepared by plunge freezing of aqueous dispersion on plasma-treated lacey grids. The vitrified specimens were then transferred to a Gatan-910 cryoholder. The 5 images were recorded at −170° C. with an acceleration voltage of 120 kV. The concentration of JD in the aqueous solution of DSs was 1 mg mL-^1.

SMILES	PDI ([1]; JD 0.025 mg·mL−1 in water)	Dh (nm) ([1]; JD 0.025 mg·mL−1 in water)	PDI ([1]; JD 0.05 mg·mL−1 in water)	Dh (nm) ([1]; JD 0.05 mg·mL−1 in water)	PDI ([1]; JD 0.1 mg·mL−1 in water)	Dh (nm) ([1]; JD 0.1 mg·mL−1 in water)	PDI ([1]; JD 0.15 mg·mL−1 in water)	Dh (nm) ([1]; JD 0.15 mg·mL−1 in water)	PDI ([1]; JD 0.2 mg·mL−1 in water)	Dh (nm) ([1]; JD 0.2 mg·mL−1 in water)	PDI ([1]; JD 0.25 mg·mL−1 in water)	Dh (nm) ([1]; JD 0.25 mg·mL−1 in water)	PDI ([1]; JD 0.3 mg·mL−1 in water)	Dh (nm) ([1]; JD 0.3 mg·mL−1 in water)	PDI ([1]; JD 0.4 mg·mL−1 in water)	Dh (nm) ([1]; JD 0.4 mg·mL−1 in water)	PDI ([1]; JD 0.5 mg·mL−1 in water)	Dh (nm) ([1]; JD 0.5 mg·mL−1 in water)	Number of vesicle layers: 1 (count of vesicles) [2]	Number of vesicle layers: 2 (count of vesicles) [2]	other results
CCCCCCCCCCCCOc1cc(OCCCCCCCCCCCC)cc(C(=O)OC[C@H](COC(=O)C(C)(COC(=O)c2cc(OCCOCCOCCOC)c(OCCOCCOCCOC)c(OCCOCCOCCOC)c2)COC(=O)c2cc(OCCOCCOCCOC)c(OCCOCCOCCOC)c(OCCOCCOCCOC)c2)OC(=O)c2cc(OCCCCCCCCCCCC)cc(OCCCCCCCCCCCC)c2)c1 [Compound 1R, (3,5)-12G1-GC-(R)-BMPA-(3,4,5)-3EO-G1]	0.455	82	0.336	87	0.197	110	0.195	124	0.175	135	0.202	140	0.190	148	0.228	178	0.326	233	61	15	Number of vesicle layers: 3 (count of vesicles) [2]: 4; Number of vesicle layers: 4 (count of vesicles) [2]: 1; Number of vesicle layers: 5 (count of vesicles) [2]: 1; Number of vesicle layers: 6 (count of vesicles) [2]: 0
CCCCCCCCCCCCOc1cc(OCCCCCCCCCCCC)cc(C(=O)OC[C@@H](COC(=O)C(C)(COC(=O)c2cc(OCCOCCOCCOC)c(OCCOCCOCCOC)c(OCCOCCOCCOC)c2)COC(=O)c2cc(OCCOCCOCCOC)c(OCCOCCOCCOC)c(OCCOCCOCCOC)c2)OC(=O)c2cc(OCCCCCCCCCCCC)cc(OCCCCCCCCCCCC)c2)c1 [Compound 1S, (3,5)-12G1-GC-(S)-BMPA-(3,4,5)-3EO-G1]	0.446	80	0.359	86	0.223	100	0.190	124	0.195	135	0.203	142	0.186	147	0.258	184	0.438	229	23	9	Number of vesicle layers: 3 (count of vesicles) [2]: 3; Number of vesicle layers: 4 (count of vesicles) [2]: 4; Number of vesicle layers: 5 (count of vesicles) [2]: 1; Number of vesicle layers: 6 (count of vesicles) [2]: 0
CCCCCCCCCCCCOc1cc(OCCCCCCCCCCCC)cc(C(=O)OCC(C)(COC(=O)c2cc(OCCCCCCCCCCCC)cc(OCCCCCCCCCCCC)c2)C(=O)OC[C@@H](COC(=O)c2cc(OCCOCCOCCOC)c(OCCOCCOCCOC)c(OCCOCCOCCOC)c2)OC(=O)c2cc(OCCOCCOCCOC)c(OCCOCCOCCOC)c(OCCOCCOCCOC)c2)c1 [Compound 2R, (3,5)-12G1-BMPA-GC-(R)-(3,4,5)-3EO-G1]	0.416	107	0.368	108	0.258	111	0.257	125	0.242	134	0.186	139	0.227	152	0.263	180	0.497	319	202	2	lamellarity of DSs (in words) [2]: unilamellar DSs predominantly; calculated percentages of unilamellar DSs in the selected images [2]: 91%; Number of vesicle layers: 3 (count of vesicles) [2]: 5; Number of vesicle layers: 4 (count of vesicles) [2]: 1; Number of vesicle layers: 5 (count of vesicles) [2]: 3; Number of vesicle layers: 6 (count of vesicles) [2]: 2; Number of vesicle layers: 7 (count of vesicles) [2]: 0; Number of vesicle layers: 8 (count of vesicles) [2]: 0; Number of vesicle layers: 9 (count of vesicles) [2]: 0; Number of vesicle layers: 10 (count of vesicles) [2]: 0; Number of vesicle layers: 11 (count of vesicles) [2]: 1; Number of vesicle layers: 12 (count of vesicles) [2]: 0
CCCCCCCCCCCCOc1cc(OCCCCCCCCCCCC)cc(C(=O)OCC(C)(COC(=O)c2cc(OCCCCCCCCCCCC)cc(OCCCCCCCCCCCC)c2)C(=O)OC[C@H](COC(=O)c2cc(OCCOCCOCCOC)c(OCCOCCOCCOC)c(OCCOCCOCCOC)c2)OC(=O)c2cc(OCCOCCOCCOC)c(OCCOCCOCCOC)c(OCCOCCOCCOC)c2)c1 [Compound 2S, (3,5)-12G1-BMPA-GC-(S)-(3,4,5)-3EO-G1]	0.465	106	0.422	107	0.291	112	0.212	119	0.203	128	0.223	132	0.235	153	0.205	165	0.295	288	63	13	lamellarity of DSs (in words) [2]: unilamellar DSs predominantly; calculated percentages of unilamellar DSs in the selected images [2]: 70%; Number of vesicle layers: 3 (count of vesicles) [2]: 9; Number of vesicle layers: 4 (count of vesicles) [2]: 1; Number of vesicle layers: 5 (count of vesicles) [2]: 0; Number of vesicle layers: 6 (count of vesicles) [2]: 0; Number of vesicle layers: 7 (count of vesicles) [2]: 1; Number of vesicle layers: 8 (count of vesicles) [2]: 1; Number of vesicle layers: 9 (count of vesicles) [2]: 0; Number of vesicle layers: 10 (count of vesicles) [2]: 3; Number of vesicle layers: 11 (count of vesicles) [2]: 1; Number of vesicle layers: 12 (count of vesicles) [2]: 0
